{
  "source": "patent US5935604A",
  "about": "(Danbiosyst UK Limited, priority 1993, dated 1999)",
  "origin": "cited, not measured here",
  "key": {"[1]": {"test_system": "heart"}, "[2]": {"conditions": "man, single doses of 1 mg"}, "[3]": {"conditions": "in vivo"}, "[4]": {"conditions": "nasal"}},
  "data": [
    {"compound": "Cc1ncccc1C1CCCN1C", "note": "(stereo not shown) [2-methyl nicotine]", "values": [
      {"measurement": "side-effects on the heart", "setting": "[1]", "result": "reduced side-effects on the heart"}
    ]},
    {"compound": "CN1CCCC1c1cccnc1", "note": "(stereo not shown) [nicotine]", "values": [
      {"measurement": "nicotine peak plasma levels", "setting": "regular smokers of 15 or more cigarettes per day, daytime average", "result": "about 35 μg/l"},
      {"measurement": "dose of systemically available nicotine absorbed per cigarette", "setting": "regular smokers, average", "result": "about 1 mg"},
      {"measurement": "interval between taking a puff and nicotine arriving in the brain", "setting": "smoking a cigarette", "result": "10 to 20", "unit": "s"},
      {"measurement": "plasma nicotine level", "setting": "two minutes after the first cigarette, 2 min", "result": "about 13 μg/l"},
      {"measurement": "rate of absorption", "setting": "[2]; nasal", "result": "fast"},
      {"measurement": "time to maximum concentration", "setting": "[2]; nasal", "result": "≤ 10", "unit": "min"},
      {"measurement": "differences for different nasal treatments", "setting": "[2]", "result": "No differences could be found"},
      {"measurement": "potential side effects", "setting": "[3]", "result": "sleep disturbances and nightmares can result"}
    ]},
    {"compound": "Gentamicin", "values": [
      {"measurement": "absorption with bioadhesive microsphere system", "setting": "[4]", "result": "increase the absorption"}
    ]}
  ]
}
